# Laboratory results taken from ChEMBL document CHEMBL3045948, “Design, synthesis, and potential CNS activity of some new bioactive 1-(4-substituted-phenyl)-3-(4-oxo-2-methyl-4H-quinazolin-3-yl)-urea” (Med Chem Res, 2011).
# Active and inactive are the calls of the source. The calls are words filed in the database; no cut-off is given here.
# Key:
# Rattus norvegicus = experiment: CNS depressant activity in Rattus norvegicus Wistar (rat) assessed as immobility time at 100 mg/kg, ip measured after 60 min by forced swim test (reference value: 45.6 +/- 19.45 to 180.97 +/- 14.15 sec); type: functional; conditions: route intraperitoneal
# Mus musculus [1] = experiment: (§1) Neurotoxicity in ip dosed Mus musculus (mouse) after 4 hr by rotorod test; type: toxicity, organism-based; conditions: in vivo, 4 h
# Mus musculus [2] = experiment: (§2) Neurotoxicity in ip dosed Mus musculus (mouse) after 0.5 hr by rotorod test; type: toxicity, organism-based; conditions: in vivo, 0.5 h
# Mus musculus [3] = experiment: Anticonvulsant activity in ip dosed Mus musculus (mouse) assessed as protection against subcutaneous pentyleneterazole-induced seizure measured after 4 hr; type: functional; conditions: read-out: MED
# Mus musculus [4] = experiment: Anticonvulsant activity in ip dosed Mus musculus (mouse) assessed as protection against subcutaneous pentyleneterazole-induced seizure measured after 0.5 hr; type: functional; conditions: read-out: MED
# Mus musculus [5] = experiment: Anticonvulsant activity in ip dosed Mus musculus (mouse) assessed as protection against maximal electroshock-induced seizure measured after 4 hr; type: functional; conditions: read-out: MED
# Mus musculus [6] = experiment: Anticonvulsant activity in ip dosed Mus musculus (mouse) assessed as protection against maximal electroshock-induced seizure measured after 0.5 hr; type: functional; conditions: read-out: MED
# Mus musculus [7] = experiment: Anticonvulsant activity in Mus musculus (mouse) assessed as protection against subcutaneous pentyleneterazole-induced seizure at 300 mg/kg, ip measured after 4 hr; type: functional, organism-based; set-up: dose 300 mg/kg
# Mus musculus [8] = experiment: Sedative-hypnotic activity in Mus musculus (mouse) assessed as inhibition of locomotory activity at 100 mg/kg, ip measured after 1 hr by actophotometer test; type: functional; conditions: route intraperitoneal
# [9] = as §1; type: toxicity, organism-based; conditions: in vivo
# [10] = as §2; type: toxicity, organism-based; conditions: in vivo
# Mus musculus [11] = experiment: Anticonvulsant activity in Mus musculus (mouse) assessed as protection against subcutaneous pentyleneterazole-induced seizure at 300 mg/kg, ip measured after 0.5 hr; type: functional, organism-based; set-up: dose 300 mg/kg
# Mus musculus [12] = experiment: Anticonvulsant activity in Mus musculus (mouse) assessed as protection against maximal electroshock-induced seizure at 300 mg/kg, ip measured after 4 hr; type: functional, organism-based; set-up: dose 300 mg/kg
# Mus musculus [13] = experiment: Anticonvulsant activity in Mus musculus (mouse) assessed as protection against maximal electroshock-induced seizure at 300 mg/kg, ip measured after 0.5 hr; type: functional, organism-based; set-up: dose 300 mg/kg
Compound,Time (Rattus norvegicus) [s],MTC (Mus musculus [1]) [mg/kg],MTC (Mus musculus [2]) [mg/kg],minimal effective dose (Mus musculus [3]) [mg/kg],minimal effective dose (Mus musculus [4]) [mg/kg],minimal effective dose (Mus musculus [5]) [mg/kg],minimal effective dose (Mus musculus [6]) [mg/kg],Activity (Mus musculus [7]),inhibition in vivo at 100 mg/kg (Mus musculus [8]) [%],MTD at 4 h [9] [mg/kg],MTD at 0.5 h [10] [mg/kg],Activity (Mus musculus [11]),Activity (Mus musculus [12]),Activity (Mus musculus [13])
NC(=O)N1c2ccccc2C=Cc2ccccc21 [CARBAMAZEPINE],240.3,300,100,300,100,100,30,,,,,,,
Cc1nc2ccccc2c(=O)n1NC(=O)Nc1ccc(F)cc1,188.16,,,,,,,inactive,45,300,300,inactive,inactive,inactive
Cc1nc2ccccc2c(=O)n1NC(=O)Nc1ccc(Cl)cc1,204.7,300,300,,300,,300,inactive,48,,,,inactive,
CCC1(c2ccccc2)C(=O)NC(=O)NC1=O [PHENOBARBITAL],,300,100,300,30,30,100,,,,,,,
Cc1nc2ccccc2c(=O)n1NC(=O)Nc1ccc(Br)cc1,70.63,,300,,300,,300,inactive,51,300,,,inactive,
Cc1ccc(NC(=O)Nn2c(C)nc3ccccc3c2=O)cc1,210.29,,,,,,,inactive,52,300,300,inactive,inactive,inactive
Cc1nc2ccccc2c(=O)n1NC(=O)Nc1ccc([N+](=O)[O-])cc1,190.29,,,,,,,inactive,40,300,300,inactive,inactive,inactive
COc1ccc(NC(=O)Nn2c(C)nc3ccccc3c2=O)cc1,202.29,,,,,,,inactive,42,300,300,inactive,inactive,inactive
CCCC(CCC)C(=O)[O-].[Na+] [VALPROATE SODIUM],,,,,300,,,inactive,,300,300,,inactive,inactive
O=C1NC(=O)C(c2ccccc2)(c2ccccc2)N1 [PHENYTOIN],,100,100,,,30,30,inactive,70,,,inactive,,
CCc1ccc(NC(=O)Nn2c(C)nc3ccccc3c2=O)cc1,208.29,,,,300,300,300,inactive,53,300,300,,,
Cc1cccc(NC(=O)Nn2c(C)nc3ccccc3c2=O)c1,218.29,,,,,,,inactive,51,300,300,inactive,inactive,inactive
CCOc1ccc(NC(=O)Nn2c(C)nc3ccccc3c2=O)cc1,198.29,300,300,,,,,inactive,45,,,inactive,inactive,inactive
CCC1(C)CC(=O)NC1=O (stereo unspecified) [ETHOSUXIMIDE],,,,,300,,,inactive,,,,,inactive,inactive
Cc1ccccc1NC(=O)Nn1c(C)nc2ccccc2c1=O,226.29,,,,,,,inactive,51,300,300,inactive,inactive,inactive
Cc1nc2ccccc2c(=O)n1NC(=O)Nc1ccccc1,130.56,,300,,,,,inactive,50,300,,inactive,inactive,inactive
Cc1nc2ccccc2c(=O)n1NC(=O)Nc1ccc(I)cc1,194.05,,,,,,,inactive,53,300,300,inactive,inactive,inactive
